# Test results published in US11420962B2, “Indene derivatives useful in treating pain and inflammation” (TARO PHARMACEUTICALS INC., priority 2018, dated 2022).
# Tests used:
# Human DRG = assay: Human dorsal root ganglion (DRG) excitability response; assay type: cell-based; settings: Table 6; Biological Example 3, human DRG; read-out: Scoring (IC50)
# Experimental: Human DRGs are transferred into a dissection vessel containing a cold (4° C.), fresh proprietary dissection solution. DRGs are maintained completely submerged in dissection solution followed by dissection by an appropriate method.
# Cells are plated into a 96 well plate. Calcium dye (Fluo 8-AM) is loaded in each well for a period of 20 to 25 min, maintaining temperature at ambient. The baseline excitability profile (ability of firing action potentials) of the cells is assessed at both low and high threshold stimulations using optical EFS. Following baseline profiling, cells are subjected to test compounds.
# Representative compounds of the invention (i.e., test compounds) are added to cells and the cells are stimulated (using EFS) to induce action potentials at regular intervals, according to the parameters outlined in Table 5. Four concentrations of each compound are utilized and directly injected into separate wells to allow for determination of a dose response (IC50). At the end of the protocol, the nociceptor positive control compound (capsaicin) is perfused into the cells at 200 nM and signal recorded. […]
# Recordings are performed in stream mode at 100 Hz for the EFS portion of the above protocol and in time lapse model at 0.2 Hz for the final step utilizing capsaicin. For each concentration tested, the number of cells blocked vs baseline will be counted at different thresholds. […]
# [1] = Metabolism by human liver microsomes; assay type: in vitro ADME; settings: Table 8; 10 µM, in the presence of NADPH, 1 mg/mL protein
# Summary of the method: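 Compound at 10 μM preincubated 10 min at 37 °C with human liver microsomes (1 mg/mL protein), 100 mM Tris HCl pH 7.5; started with 1 mM NADPH, run 60 min. Percent remaining at 60 min versus 0-time by LC-MS/MS analyte/internal-standard ratio, scored in bands.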
# [2] = test system: Rats (male, Sprague-Dawley); assay: Rat carrageenan-induced hyperalgesia and paw edema; assay type: in vivo; settings: 30 mg/kg, administered at the time of, or 1 h after challenge
# Experimental: Representative compounds of the invention (i.e., test compounds) were administered PO, QD for 3 days prior to carrageenan injection, once at 1 h prior to carrageen, or at 5 min or 1 h post-challenge to rats (male, Sprague-Dawley). Rats received either an intraplantar injection of saline (sham) or carrageen (0.1 mL of a 2% solution [w/v]) in the right hind paw. Mechanical hyperalgesia (using an analgesymeter) and paw volume (using a digital plethysmometer) were measured at baseline (0 hr), 2, 4 and 6 h post carrageenan injection for all the animals. Celecoxib, given 1 h prior to carrageen challenge, was used as a reference standard.
# [3] = test system: Rats (female, Sprague-Dawley); assay: Rat ketamine cystitis (visceral pain); assay type: in vivo
# Experimental: Rats (female, Sprague-Dawley) received daily intraperitoneal injections of saline (sham control) or ketamine (50 mg/kg) for 14 days. […] Referred mechanical sensitivity was assessed on Day 7 and Day 14 by application of a series of von Frey filaments to the lower abdomen and the nociceptive threshold was scored.
compound,measurement,setting,value
"C=C1CC[C@H]2[C@H](CN)[C@@H]([C@@]3(C)Cc4cn[nH]c4C[C@@H]3CO)CC[C@]12C [Ia-1, ((5R,6S)-5-((3aS,4R,5S,7aS)-4-(aminomethyl)-7a-methyl-1-methyleneoctahydro-1H-inden-5-yl)-5-methyl-4,5,6,7-tetrahydro-1H-indazol-6-yl)methanol]",IC50,Human DRG,< 2 µM
same,"Scoring (% of drug remaining after 60 minutes, PDR60)",[1],B (a PDR^60 of 61 to 80%)
same,average increase in the paw withdrawal threshold as compared to the vehicle,[2],41%
same,increase in the nociceptive threshold (relative to unchallenged),"[3]; 1.0 mg/kg dose, PO, QD",61%
same,increase in the nociceptive threshold (relative to unchallenged),"[3]; 3.0 mg/kg dose, PO, QD",69%
same,increase in the nociceptive threshold (relative to unchallenged),[3]; 10 mg/kg dose,85%
